15 compounds from patent US12558428B2, “Heterobifunctional compounds and their use in treating disease” (Halda Therapeutics OpCo, Inc., priority 2024, dated 2026) can be followed below.

One may read the GI50 as the concentration that inhibits growth by half.

Type in all cases: cell-based
For experiment [1], the system named is T-Rex 293 cells having increased expression of estrogen receptor alpha protein. The experiment can be described thus: Cellular growth inhibition assay, T-Rex 293 cells, (+) doxycycline. Conditions: T-REx-293, 72 h, 72 hours. The procedure: (§1) Exemplary compounds were tested for the ability to inhibit the proliferation of the following types of cells: (i) a T-Rex 293 cell line having increased expression of estrogen receptor alpha protein from exposure to doxycycline and (ii) a T-Rex 293 cell line lacking increased expression of estrogen receptor alpha protein.
(§2) The following types of cells were prepared for this experiment: (i) a T-Rex 293 cell line having increased expression of estrogen receptor alpha protein from exposure to doxycycline and (ii) a T-Rex 293 cell line lacking increased expression of estrogen receptor alpha protein. The ability of the test compounds to inhibit proliferation of the foregoing cell types was evaluated according to the procedures set forth below.
(§3) The doxycycline-inducible estrogen receptor alpha protein expressing cell line was established using the following protocol: T-Rex 293 cells were purchased from Invitrogen (Cat #R71007) and transfected using Lipofectamine 2000 with the wild-type estrogen receptor alpha protein sequence cloned into the pcDNA4/TO vector. Transfected cells were selected using 400 μg/mL Zeocin (Invitrogen Cat #R25001). Following selection, single clones were raised and maintained in Dulbecco's Modified Eagle Medium (DMEM) supplemented with 10% w/w Tetracycline-free fetal bovine serum (FBS) and 250 μg/mL Zeocin. Clones were analyzed for expression of estrogen receptor alpha protein in the presence and absence of 3 ng/mL doxycycline (Sigma Cat #D9891), and a single doxycycline-inducible clone (hereinafter “SC”) was selected for use in downstream assays.
(§4) The SC cells were seeded on poly-D-lysine coated, black clear-bottom 384-well plates at 2500/well, in 25 μL Phenol Red Free Dulbecco's Modified Eagle Medium (DMEM) supplemented with 10% w/w charcoal-dextran treated fetal bovine serum (FBS) and 1% w/w pen-strep, with or without 3 ng/mL doxycycline. Pen-Strep is a commercially available mixture of penicillin G and streptomycin, which is used in mammalian cell culture media to prevent bacterial contamination. Phenol Red Free Dulbecco's Modified Eagle Medium (DMEM) supplemented with 10% w/w charcoal-dextran treated fetal bovine serum (FBS) and 1% w/w pen-strep, with or without 3 ng/mL doxycycline is herein referred to as Treatment Medium. Following seeding of cells in the plates, the plates were spun at 300×g for 30 seconds, then equilibrated to room temperature for 30 minutes, and then deposited in a humidified tissue culture incubator maintained at 37° C. with 5% CO2.
(§5) At 24 hours after seeding of the cells, dilutions of test compound were prepared in DMSO and dissolved in Treatment Medium, to achieve a final DMSO concentration of 0.5% w/w, thereby providing the Test Compound Solution. A 25 μL aliquot of the Test Compound Solution was added to cells in the well plates. An equal volume of a solution containing DMSO and Treatment Medium was used as a negative control. Following treatment of cells with Test Compound Solution or said equal volume of a solution containing DMSO and Treatment Medium, the plates were spun at 300×g for 30 seconds, and then left in an incubator for 72 hours.
(§6) At the end of the treatment duration, cell viability was quantified with CellTiter-Glo 2.0 reagent (Promega Cat #G9243). For this purpose, plates were equilibrated to room temperature for 30 minutes, and then 25 μL of CellTiter-Glo 2.0 reagent was added to cells in the plate wells. Plates were then agitated on a shaker for two minutes at 500 rpm and subsequently incubated at room temperature for 10 minutes. Following incubation, the plates were spun at 3000×g for 30 seconds, then sealed with an optical adhesive cover, and luminescence readings were measured with an EnVision Plate Reader (Perkin Elmer).
(§7) Data was normalized using zero luminescence for baseline. […]

Experiment [2] has as its system T-Rex 293 cells lacking increased expression of estrogen receptor alpha protein. The experiment can be described thus: Cellular growth inhibition assay, T-Rex 293 cells, (−) doxycycline. Conditions: T-REx-293, 72 h, 72 hours. The procedure:
as §1, §2, §3, §4, §5, §6, §7

Experiment [3] relates to MCF7 cells (ATCC #HTB-22). The experiment can be described thus: Cellular growth inhibition assay, MCF7 cells purchased from ATCC. To be noted: Homo sapiens, MCF7, 144 h, Table 8-A; MCF7 cells purchased from ATCC; six days; CellTiter-Glo; read-out: GI50. The method, then:
Exemplary compounds were tested for the ability to inhibit the proliferation of MCF7 cells.
MCF7 cells (ATCC #HTB-22 or ECACC #86012803) were cultured in RPMI 1640 medium supplemented with 10% heat-inactivated fetal bovine serum, 1% pen-strep, and 0.2 U/ml insulin. Cells were seeded in 25 μL of RPMI 1640 medium supplemented with 10% heat-inactivated fetal bovine serum, 1% pen-strep, 0.2 U/ml insulin in poly-D-lysine treated, black clear-bottom 384-well plates at 225 cells/well for MCF7 cells purchased from ECACC or 1,500 cells/well for MCF7 cells purchased from ATCC. Following seeding, plates were spun at 300×g for 30 seconds and cultured at 37° C. with 5% CO2 in a humidified tissue culture incubator.
At 24 hours after seeding, compounds were titrated in 100% DMSO and diluted in RPMI 1640 medium supplemented with 10% heat-inactivate fetal bovine serum, 1% pen-strep, and 0.2 U/ml insulin. A 25 μL aliquot of the compound/media mixture was added to cells, bringing the total volume in each well to 50 μL. An equal volume of DMSO without compound was used as a negative control. After treatment, plates were spun at 300×g for 30 seconds, then cultured at 37° C. with 5% CO2 for six days in a humidified tissue culture incubator.
On Day 6 of treatment, cell viability was quantified with CellTiter-Glo 2.0 reagent (Promega). Plates were equilibrated to room temperature for 30 minutes, then 25 μL of CellTiter-Glo 2.0 reagent was added to cells, bringing the total volume in each well to 75 μL. After reagent was added, plates were mixed on a shaker for two minutes at 500 rpm and then incubated at room temperature for 10 minutes. Following incubation, plates were spun at 3,000×g for 30 seconds, sealed with an optical adhesive cover, and luminescence readings were measured with an EnVision Plate Reader.
Data was normalized to 0 luminescence for baseline. A four-parameter, non-linear regression curve fit was applied to dose-response data in GraphPad Prism data analysis software to determine the half maximal growth inhibitory concentration (GI50) for each compound.
(Cellular ATP, detected with luciferase, serves as a proxy for viable cell number.)

The mark [4] stands for this setting: T-Rex 293 cells with doxycycline-induced ERα expression, CellTiter-Glo 2.0, read-out: (+) Dox TRex ERa (GI50).
Where [5] appears, read: T-Rex 293 cells without doxycycline, CellTiter-Glo 2.0, read-out: (−) Dox TRex ERa (GI50).
The mark [6] stands for this setting: Table 7-A, T-Rex 293 cells with doxycycline (increased ERα expression), CellTiter-Glo, read-out: (+) Dox GI50.
Setting [7] is: Table 7-A, T-Rex 293 cells without doxycycline (lacking increased ERα expression), CellTiter-Glo, read-out: (−) Dox GI50.

Molecules are shown by their SMILES. Read-outs that look alike come from different tables or passages of the source.

For the compound `Cc1sc2c(c1C)C(c1ccc(OC3CC4(CCN(c5ccc(C(=O)c6c(-c7ccc(O)cc7)sc7cc(O)ccc67)cc5)CC4)C3)cc1)=N[C@@H](Cc1ncco1)c1nnc(C)n1-2` (single isomer, unassigned) [I-26, (6-hydroxy-2-(4-hydroxyphenyl)benzo[b]thiophen-3-yl)(4-(2-(4-(2,3,9-trimethyl-6-(oxazol-2-ylmethyl)-6H-thieno[3,2-f][1,2,4]triazolo[4,3-a][1,4]diazepin-4-yl)phenoxy)-7-azaspiro[3.5]nonan-7-yl)phenyl)methanone], the values for the GI50 in experiment [1] (setting [4]), in experiment [2] (setting [5]) and in experiment [3] were less than 50 nM, 50 to 500 nM and less than 50 nM, respectively.

For the compound `Cc1sc2c(c1C)C(c1ccc(N3CCN(CC4CCN(c5ccc([C@H]6c7ccc(O)cc7CC[C@H]6c6ccccc6)cc5)CC4)CC3)cc1)=N[C@@H](C)c1nnc(C)n1-2` (single isomer, unassigned) [I-37a], the results for the GI50 in experiment [1] (setting [6]), in experiment [2] (setting [7]) and in experiment [3] were 50 to 500 nM, 500 to 2500 nM and 50 to 500 nM, respectively.

As to `Cc1sc2c(c1C)C(c1ccc(N3CCN(CC4CCN(c5ccc([C@@H]6c7ccc(O)cc7CC[C@@H]6c6ccccc6)cc5)CC4)CC3)cc1)=N[C@@H](C)c1nnc(C)n1-2` (single isomer, unassigned) [I-37b], the GI50 in experiment [1] (setting [6]), in experiment [2] (setting [7]) and in experiment [3] was 500 to 2500 nM throughout.

Take `CC1=C(c2c(F)cc(OCCOCCOc3ccc(C4=N[C@@H](C)c5nnc(C)n5-c5sc(C)c(C)c54)cc3)cc2F)C(c2ccccc2)Oc2ccc(O)cc21` (single isomer, unassigned) [I-39]: the results for the GI50 in experiment [1] (setting [4]), in experiment [2] (setting [5]) and in experiment [3] were 50 to 500 nM, 500 to 2500 nM and 50 to 500 nM, respectively.

Turning to `Cc1sc2c(c1C)C(c1ccc(N3CCC(O)(CN4CCC(c5cc(F)c([C@H]6c7ccc(O)cc7CC[C@H]6c6ccc(F)cc6)c(F)c5)CC4)CC3)cc1)=N[C@@H](C)c1nnc(C)n1-2` (single isomer, unassigned) [III-244], the concentration for 50% growth inhibition (GI50) in experiment [1] (setting [6]) is more than 2500 nM; in experiment [2] (setting [7]) it was more than 2500 nM; in experiment [3] it was 50 to 500 nM.

For the compound `Cc1sc2c(c1C)C(c1ccc(N3CCC(O)(CN4CCC(c5cc(F)c([C@@H]6c7ccc(O)cc7CC[C@@H]6c6ccc(F)cc6)c(F)c5)CC4)CC3)cc1)=N[C@@H](C)c1nnc(C)n1-2` (single isomer, unassigned) [III-245], the concentration for 50% growth inhibition (GI50) is less than 50 nM in experiment [1] (setting [6]), 500 to 2500 nM in experiment [2] (setting [7]) and less than 50 nM in experiment [3].

`COc1cc(N2CCN(CC3(O)CCN(c4ccc(C5=N[C@@H](C)c6nnc(C)n6-c6sc(C)c(C)c65)cc4)CC3)CC2)ccc1[C@H]1c2ccc(O)cc2CC[C@H]1c1ccc(F)cc1` (single isomer, unassigned) [III-275]: the GI50 in experiment [1] (setting [6]), in experiment [2] (setting [7]) and in experiment [3] was 50 to 500 nM throughout.

Consider `COc1cc(N2CCN(CC3(O)CCN(c4ccc(C5=N[C@@H](C)c6nnc(C)n6-c6sc(C)c(C)c65)cc4)CC3)CC2)ccc1[C@@H]1c2ccc(O)cc2CC[C@@H]1c1ccc(F)cc1` (single isomer, unassigned) [III-276], for which the concentration for 50% growth inhibition (GI50) in experiment [1] (setting [6]) is less than 50 nM; in experiment [2] (setting [7]), 500 to 2500 nM; in experiment [3] it was less than 50 nM.

As to `COc1cc(N2CCN(CC3(O)CCN(c4ccc(C5=N[C@@H](C)c6nnc(C)n6-c6sc(C)c(C)c65)cc4)CC3)CC2)ccc1[C@@H]1c2ccc(O)cc2CC[C@@H]1c1ccccc1F` (single isomer, unassigned) [III-307], the concentration for 50% growth inhibition (GI50) in experiment [1] (setting [6]) was less than 50 nM; in experiment [2] (setting [7]), 500 to 2500 nM; in experiment [3] it was less than 50 nM.

`COc1cc(N2CCN(CC3(O)CCN(c4ccc(C5=N[C@@H](C)c6nnc(C)n6-c6sc(C)c(C)c65)cc4)CC3)CC2)ccc1[C@H]1c2ccc(O)cc2CC[C@H]1c1ccccc1F` (single isomer, unassigned) [III-308]: the GI50 in experiment [1] (setting [6]), in experiment [2] (setting [7]) and in experiment [3] was 50 to 500 nM throughout.

Take `CCN(CCOCCOCCOCCOCCOCCOCCCCCCCCc1cc(Cl)cc(NC(=O)NCc2ccc3c(c2)CN(C2CCC(=O)NC2=O)C3=O)c1)CCOc1ccc(C(=O)c2c(-c3ccc(O)cc3)sc3cc(O)ccc23)cc1` (centres unmarked) [II-1]: the GI50 in experiment [3] is less than 50 nM.

Take `CCN(CCCCCCCCc1cc(Cl)cc(NC(=O)NCc2ccc3c(c2)CN(C2CCC(=O)NC2=O)C3=O)c1)CCOc1ccc(C(=O)c2c(-c3ccc(O)cc3)sc3cc(O)ccc23)cc1` (centres unmarked) [II-3]: the GI50 in experiment [3] was less than 50 nM.

As to `COc1cc(N2CCN(CC3CCN(c4ccc(C5=N[C@@H](C)c6nnc(C)n6-c6sc(C)c(C)c65)c(F)c4)CC3)CC2)ccc1[C@@H]1c2ccc(O)cc2CC[C@@H]1c1ccc(C)cc1` [III-332], the 50% growth inhibitory concentration (GI50) in experiment [1] (setting [6]) is less than 50 nM; in experiment [2] (setting [7]), 50 to 500 nM.

`Cc1sc2c(c1C)C(c1ccc(N3CCC(O)(CN4CCC(c5cc(F)c([C@H]6c7ccc(O)cc7CC[C@H]6c6ccc(F)cc6)c(F)c5)CC4)CC3)cc1F)=N[C@@H](C)c1nnc(C)n1-2` [III-337, 4-((4-(3,5-difluoro-4-((1R,2R)-2-(4-fluorophenyl)-6-hydroxy-1,2,3,4-tetrahydronaphthalen-1-yl)phenyl)piperidin-1-yl)methyl)-1-(3-fluoro-4-((6S)-2,3,6,9-tetramethyl-6H-thieno[3,2-f][1,2,4]triazolo[4,3-a][1,4]diazepin-4-yl)phenyl)piperidin-4-ol]: the GI50 in experiment [1] (setting [6]) lay in the range of 50 to 500 nM; in experiment [2] (setting [7]), 500 to 2500 nM.

Regarding `Cc1sc2c(c1C)C(c1ccc(N3CCC(O)(CN4CCC(c5cc(F)c([C@@H]6c7ccc(O)cc7CC[C@@H]6c6ccc(F)cc6)c(F)c5)CC4)CC3)cc1F)=N[C@@H](C)c1nnc(C)n1-2` [III-338, 4-((4-(3,5-difluoro-4-((1S,2S)-2-(4-fluorophenyl)-6-hydroxy-1,2,3,4-tetrahydronaphthalen-1-yl)phenyl)piperidin-1-yl)methyl)-1-(3-fluoro-4-((6S)-2,3,6,9-tetramethyl-6H-thieno[3,2-f][1,2,4]triazolo[4,3-a][1,4]diazepin-4-yl)phenyl)piperidin-4-ol], the GI50 in experiment [1] (setting [6]) was less than 50 nM; in experiment [2] (setting [7]), 500 to 2500 nM.
